The values that follow come from US8580794B2 (AbbVie Inc., priority 2009, dated 2013).

The subject of assay [1] is RS4;11 cells. The conditions noted are these: Blood, 2008, Vol. 111, 2300-2309; cited from earlier work.
Assay [2] has as its system RS4;11 cells. Kind of assay: RS4;11 Cell Viability Assay (CellTiter Glo).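 Note: RS4,11 acute lymphoblastic leukemia cells, viability as percent of untreated control cells, EC50 for loss of viable cells.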 The conditions noted are these: Homo sapiens, RS4-11, 48 h, 50,000 cells per well, 10% human serum. The assay is classed as cell-based. A general note: Cellular ATP, detected with luciferase, serves as a proxy for viable cell number.
Method: The acute lymphoblastic leukemia (ALL) cell line RS4;11 was used as the primary human cell line to assess the cellular activity of Bcl-2 selective agents in vitro and their efficacy in vivo.
Cell cytotoxicity EC50 values were assessed using CellTiter Glo (Promega) according to the manufacturer's recommendations. The EC50 values were determined as a percentage of viable cells following treatment compared to the untreated control cells.
Another assay concerns the target GST-Bc1-2 (Homo sapiens, UniProt P10415). Kind of assay: Time Resolved-Fluorescence Resonance Energy Transfer (TR-FRET) Bcl-2 binding assay with F-Bak peptide probe. The conditions noted are these: GST-Bcl-2 1 nM, F-Bak probe 100 nM, Tb-anti-GST 1 nM; '<' = below limit of detection; read-out: TR-FRET Bcl-2 Binding Ki.

Broadly, the EC50 is the concentration that produces a half-maximal response. The low end stands for an effect from little substance, the high end for a need for much substance. The term Ki denotes the equilibrium dissociation constant of an inhibitor or competing ligand from its target.

Chain of GST-Bc1-2 (P10415 whole entry): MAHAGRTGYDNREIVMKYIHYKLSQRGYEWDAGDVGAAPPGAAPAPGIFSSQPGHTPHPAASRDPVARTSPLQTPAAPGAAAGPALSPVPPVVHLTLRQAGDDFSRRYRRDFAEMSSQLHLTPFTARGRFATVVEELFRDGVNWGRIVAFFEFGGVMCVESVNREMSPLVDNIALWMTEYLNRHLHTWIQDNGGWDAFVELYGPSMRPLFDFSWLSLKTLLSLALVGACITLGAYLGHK
Method for GST-Bc1-2: The samples are then mixed on a shaker for 1 minute and incubated for an additional 3 hours at room temperature. For each assay, the probe/antibody and protein/probe/antibody were included on each assay plate as negative and positive controls, respectively.
The samples were then mixed on a shaker for 1 minute and incubated for an additional 3 hours at room temperature. For each assay, the probe/antibody and protein/probe/antibody were included on each assay plate as negative and positive controls, respectively.

Take `CN(C)CC[C@H](CSc1ccccc1)Nc1ccc(S(=O)(=O)NC(=O)c2ccc(N3CCN(Cc4ccccc4-c4ccc(Cl)cc4)CC3)cc2)cc1[N+](=O)[O-]` [ABT-737, N-(4-(4-((4′-chloro(1,1′-biphenyl)-2-yl)methyl)piperazin-1-yl)benzoyl)-4-(((1R)-3-(dimethylamino)-1-((phenylsulfanyl)methyl)propyl)amino)-3-nitrobenzenesulfonamide]: the “sensitivity of RS4;11 cells to inhibitor” value in the assay with RS4;11 cells [1] is reported as “sensitive”.
Take `CC1(C)CCC(CN2CCN(c3ccc(C(=O)NS(=O)(=O)c4ccc(OCC5CCC(CO)(CO)CC5)c([N+](=O)[O-])c4)c(Oc4cnc5[nH]ccc5c4)c3)CC2)=C(c2ccc(Cl)cc2)C1` [Example 391, N-[(4-{[4,4-bis(hydroxymethyl)cyclohexyl]methoxy}-3-nitrophenyl)sulfonyl]-4-(4-{[2-(4-chlorophenyl)-4,4-dimethylcyclohex-1-en-1-yl]methyl}piperazin-1-yl)-2-(1H-pyrrolo[2,3-b]pyridin-5-yloxy)benzamide]: the 50% effective concentration (EC50) with RS4;11 cells [2] worked out at 8.41 nM. The Ki on GST-Bc1-2 was under 0.01 nM.
Taken in the same sequence, the figures for `COC1CCN(C(=O)Nc2ccc(S(=O)(=O)NC(=O)c3ccc(N4CCN(CC5=C(c6ccc(Cl)cc6)CC(C)(C)CC5)CC4)cc3Oc3cnc4[nH]ccc4c3)cc2Cl)CC1` [Example 392, N-(2-chloro-4-{[4-(4-{[2-(4-chlorophenyl)-4,4-dimethylcyclohex-1-en-1-yl]methyl}piperazin-1-yl)-2-(1H-pyrrolo[2,3-b]pyridin-5-yloxy)benzoyl]sulfamoyl}phenyl)-4-methoxypiperidine-1-carboxamide] were over 1000 nM and 0.171 nM.
Taken in the same sequence, the figures for `CC1(C)CCC(CN2CCN(c3ccc(C(=O)NS(=O)(=O)c4ccc(NC(=O)N5CCC(C#N)CC5)c(Cl)c4)c(Oc4cnc5[nH]ccc5c4)c3)CC2)=C(c2ccc(Cl)cc2)C1` [Example 393, N-(2-chloro-4-{[4-(4-{[2-(4-chlorophenyl)-4,4-dimethylcyclohex-1-en-1-yl]methyl}piperazin-1-yl)-2-(1H-pyrrolo[2,3-b]pyridin-5-yloxy)benzoyl]sulfamoyl}phenyl)-4-cyanopiperidine-1-carboxamide] were over 1000 nM and 0.263 nM.
The compound `CC1(C)CCC(CN2CCN(c3ccc(C(=O)NS(=O)(=O)c4ccc(NC(=O)N5CCC(C)(O)CC5)c(Cl)c4)c(Oc4cnc5[nH]ccc5c4)c3)CC2)=C(c2ccc(Cl)cc2)C1` [Example 394, N-(2-chloro-4-{[4-(4-{[2-(4-chlorophenyl)-4,4-dimethylcyclohex-1-en-1-yl]methyl}piperazin-1-yl)-2-(1H-pyrrolo[2,3-b]pyridin-5-yloxy)benzoyl]sulfamoyl}phenyl)-4-hydroxy-4-methylpiperidine-1-carboxamide] yielded an EC50 in the assay on RS4;11 cells [2] of 461 nM. Besides, the Ki on GST-Bc1-2 was 0.132 nM.
Turning to `COCC1CCN(C(=O)Nc2ccc(S(=O)(=O)NC(=O)c3ccc(N4CCN(CC5=C(c6ccc(Cl)cc6)CC(C)(C)CC5)CC4)cc3Oc3cnc4[nH]ccc4c3)cc2Cl)CC1` [Example 395, N-(2-chloro-4-{[4-(4-{[2-(4-chlorophenyl)-4,4-dimethylcyclohex-1-en-1-yl]methyl}piperazin-1-yl)-2-(1H-pyrrolo[2,3-b]pyridin-5-yloxy)benzoyl]sulfamoyl}phenyl)-4-(methoxymethyl)piperidine-1-carboxamide], in the assay with RS4;11 cells [2], the EC50 is over 1000 nM. For the same compound, the Ki at GST-Bc1-2 was determined as 0.257 nM.
In the case of `CC1(C)CCC(CN2CCN(c3ccc(C(=O)NS(=O)(=O)c4ccc(NC(=O)N5CCC(N6CCOCC6)CC5)c(Cl)c4)c(Oc4cnc5[nH]ccc5c4)c3)CC2)=C(c2ccc(Cl)cc2)C1` [Example 398, N-(2-chloro-4-{[4-(4-{[2-(4-chlorophenyl)-4,4-dimethylcyclohex-1-en-1-yl]methyl}piperazin-1-yl)-2-(1H-pyrrolo[2,3-b]pyridin-5-yloxy)benzoyl]sulfamoyl}phenyl)-4-(morpholin-4-yl)piperidine-1-carboxamide], it took 548 nM to reach a half-maximal effect in the assay on RS4;11 cells [2] (EC50). Also, at GST-Bc1-2, the Ki was found to be 0.149 nM.
In the case of `COCC1(O)CCC(COc2ncc(S(=O)(=O)NC(=O)c3ccc(N4CCN(CC5=C(c6ccc(Cl)cc6)CC(C)(C)CC5)CC4)cc3Oc3cnc4[nH]ccc4c3)cc2Cl)CC1` (stereo not drawn) [Example 399, N-[(5-chloro-6-{[trans-4-hydroxy-4-(methoxymethyl)cyclohexyl]methoxy}pyridin-3-yl)sulfonyl]-4-(4-{[2-(4-chlorophenyl)-4,4-dimethylcyclohex-1-en-1-yl]methyl}piperazin-1-yl)-2-(1H-pyrrolo[2,3-b]pyridin-5-yloxy)benzamide], it took 127 nM to reach a half-maximal effect in the assay with RS4;11 cells [2] (EC50). Moreover, the Ki at GST-Bc1-2 was under 0.01 nM.
`CC1(C)CCC(CN2CCN(c3ccc(C(=O)NS(=O)(=O)c4cnc(OC[C@H]5CC[C@](O)(CO)CC5)c(Cl)c4)c(Oc4cnc5[nH]ccc5c4)c3)CC2)=C(c2ccc(Cl)cc2)C1` [Example 400, N-[(5-chloro-6-{[cis-4-hydroxy-4-(hydroxymethyl)cyclohexyl]methoxy}pyridin-3-yl)sulfonyl]-4-(4-{[2-(4-chlorophenyl)-4,4-dimethylcyclohex-1-en-1-yl]methyl}piperazin-1-yl)-2-(1H-pyrrolo[2,3-b]pyridin-5-yloxy)benzamide] registered an EC50 with RS4;11 cells [2] of 64 nM. The Ki on GST-Bc1-2 was 0.031 nM.
For `CC1(C)CCC(CN2CCN(c3ccc(C(=O)NS(=O)(=O)c4cnc(OC[C@H]5CC[C@@](O)(CO)CC5)c(Cl)c4)c(Oc4cnc5[nH]ccc5c4)c3)CC2)=C(c2ccc(Cl)cc2)C1` [Example 401, N-[(5-chloro-6-{[trans-4-hydroxy-4-(hydroxymethyl)cyclohexyl]methoxy}pyridin-3-yl)sulfonyl]-4-(4-{[2-(4-chlorophenyl)-4,4-dimethylcyclohex-1-en-1-yl]methyl}piperazin-1-yl)-2-(1H-pyrrolo[2,3-b]pyridin-5-yloxy)benzamide], the half-maximal effective concentration (EC50) with RS4;11 cells [2] worked out at 26.6 nM. Besides, the Ki at GST-Bc1-2 was under 0.01 nM.
`O=C(NS(=O)(=O)c1ccc(NCC2CCOCC2)c([N+](=O)[O-])c1)c1ccc(N2CCN(CC3=C(c4ccc(Cl)cc4)CCCC3)CC2)cc1Oc1cnc2[nH]ccc2c1` [Example 403, 4-(4-{[2-(4-chlorophenyl)cyclohex-1-en-1-yl]methyl}piperazin-1-yl)-N-({3-nitro-4-[(tetrahydro-2H-pyran-4-ylmethyl)amino]phenyl}sulfonyl)-2-(1H-pyrrolo[2,3-b]pyridin-5-yloxy)benzamide] gave an EC50 in the assay with RS4;11 cells [2] of 34 nM. In addition, at GST-Bc1-2, the Ki is under 0.01 nM.
Regarding `CC1(C(=O)O)CCC(c2ccc(Cl)cc2)=C(CN2CCN(c3ccc(C(=O)NS(=O)(=O)c4ccc(NCC5CCOCC5)c([N+](=O)[O-])c4)c(Oc4cnc5[nH]ccc5c4)c3)CC2)C1` (centres unmarked) [Example 404, 4-(4-chlorophenyl)-1-methyl-3-[(4-{4-[({3-nitro-4-[(tetrahydro-2H-pyran-4-ylmethyl)amino]phenyl}sulfonyl)carbamoyl]-3-(1H-pyrrolo[2,3-b]pyridin-5-yloxy)phenyl}piperazin-1-yl)methyl]cyclohex-3-ene-1-carboxylic acid], in the assay with RS4;11 cells [2], the EC50 was over 1000 nM. Also, the Ki at GST-Bc1-2 is under 0.01 nM.
